Assay results: the kinase profiling compilation of Christmann-Franck et al. (2016)
Values joined by “and” are separate entries in the source; they are usually repeats but may differ in a detail not shown here. Identical values can stand only once.

Columns and labels:
Experiment in all cases: radiometric filter-binding kinase assay, Kinase HotSpot
Details in all cases: compound 0.5 µM; ATP 10 µM
EPHA5 (human) = EPHA5 (human) (UniProt P54756)
PKN2 (human) = PKN2 (human) (UniProt Q16513)
CSF1R (human) = CSF1R (human) (UniProt P07333)
TEC (human) = TEC (human) (UniProt P42680)
PDGFRB (human) = PDGFRB (human) (UniProt P09619)
HIPK2 (human) = HIPK2 (human) (UniProt Q9H2X6)
HIPK2 (human), sequence (Q9H2X6 whole entry, looked up): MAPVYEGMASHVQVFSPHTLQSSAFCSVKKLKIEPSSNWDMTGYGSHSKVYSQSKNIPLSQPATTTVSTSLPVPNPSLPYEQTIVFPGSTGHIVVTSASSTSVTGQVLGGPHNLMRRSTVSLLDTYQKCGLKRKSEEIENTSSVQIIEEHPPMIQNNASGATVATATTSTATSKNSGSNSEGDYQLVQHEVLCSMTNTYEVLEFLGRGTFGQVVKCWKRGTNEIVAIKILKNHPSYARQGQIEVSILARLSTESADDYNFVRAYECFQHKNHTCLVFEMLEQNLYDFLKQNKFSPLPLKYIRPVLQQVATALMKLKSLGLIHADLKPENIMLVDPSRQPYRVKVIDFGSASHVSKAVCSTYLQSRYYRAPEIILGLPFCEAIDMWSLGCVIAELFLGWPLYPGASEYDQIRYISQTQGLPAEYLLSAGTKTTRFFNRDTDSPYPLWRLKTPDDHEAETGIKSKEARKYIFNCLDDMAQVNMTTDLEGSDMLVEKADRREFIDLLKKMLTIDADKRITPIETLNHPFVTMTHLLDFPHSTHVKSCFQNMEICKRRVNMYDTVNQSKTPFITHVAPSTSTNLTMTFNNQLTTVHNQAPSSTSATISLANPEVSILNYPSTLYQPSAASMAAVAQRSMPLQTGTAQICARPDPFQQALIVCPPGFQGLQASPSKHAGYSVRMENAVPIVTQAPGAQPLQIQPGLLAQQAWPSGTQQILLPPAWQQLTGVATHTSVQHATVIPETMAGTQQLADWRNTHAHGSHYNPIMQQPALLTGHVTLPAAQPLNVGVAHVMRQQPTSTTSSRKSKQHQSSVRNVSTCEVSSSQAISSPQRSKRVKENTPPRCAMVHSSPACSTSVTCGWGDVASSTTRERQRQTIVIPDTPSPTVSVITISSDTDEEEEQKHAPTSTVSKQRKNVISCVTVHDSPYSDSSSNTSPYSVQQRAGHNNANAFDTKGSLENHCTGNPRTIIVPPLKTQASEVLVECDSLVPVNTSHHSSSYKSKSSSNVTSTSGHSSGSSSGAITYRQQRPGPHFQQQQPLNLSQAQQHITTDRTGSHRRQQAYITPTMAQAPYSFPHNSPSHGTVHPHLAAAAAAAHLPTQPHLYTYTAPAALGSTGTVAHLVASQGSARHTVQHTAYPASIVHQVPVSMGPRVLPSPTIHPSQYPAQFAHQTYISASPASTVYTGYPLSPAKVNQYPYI

NEK11 (human) = NEK11 (human) (UniProt Q8NG66)
EPHA3 (human) = EPHA3 (human) (UniProt P29320)
IKBKB (human) = IKBKB (human) (UniProt O14920)
PRKCB1 (human) = PRKCB1 (human) (UniProt P05771)
PRKCB1 (human), sequence (P05771 whole entry, looked up): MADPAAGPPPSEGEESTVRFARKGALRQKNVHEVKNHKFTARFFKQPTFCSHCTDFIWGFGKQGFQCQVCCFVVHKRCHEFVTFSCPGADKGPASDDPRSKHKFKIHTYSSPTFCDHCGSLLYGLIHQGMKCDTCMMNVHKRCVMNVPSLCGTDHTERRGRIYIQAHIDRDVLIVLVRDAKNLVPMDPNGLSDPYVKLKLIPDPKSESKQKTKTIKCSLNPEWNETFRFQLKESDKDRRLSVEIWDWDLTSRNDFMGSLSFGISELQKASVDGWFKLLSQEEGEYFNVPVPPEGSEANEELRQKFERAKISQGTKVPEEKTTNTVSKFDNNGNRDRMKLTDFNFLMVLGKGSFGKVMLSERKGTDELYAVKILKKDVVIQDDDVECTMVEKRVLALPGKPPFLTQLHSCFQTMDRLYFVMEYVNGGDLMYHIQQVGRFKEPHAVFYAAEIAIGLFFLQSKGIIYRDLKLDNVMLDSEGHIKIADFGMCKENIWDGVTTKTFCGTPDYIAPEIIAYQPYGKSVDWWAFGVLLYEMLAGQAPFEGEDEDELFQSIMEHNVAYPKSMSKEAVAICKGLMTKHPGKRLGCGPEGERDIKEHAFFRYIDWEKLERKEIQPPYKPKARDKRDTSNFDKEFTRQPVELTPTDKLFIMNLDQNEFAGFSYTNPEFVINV

EPHB1 (human) = EPHB1 (human) (UniProt P54762)
CAMK1D (human) = CAMK1D (human) (UniProt Q8IU85)
MATK (human) = MATK (human) (UniProt P42679)
RPS6KB1 (human) = RPS6KB1 (human) (UniProt P23443)
TNK2 (human) = TNK2 (human) (UniProt Q07912)
CAMKK1 (human) = CAMKK1 (human) (UniProt Q8N5S9)
GRK5 (human) = GRK5 (human) (UniProt P34947)
NEK3 (human) = NEK3 (human) (UniProt P51956)
AURKA (human) = AURKA (human) (UniProt O14965)
MYLK (human) = MYLK (human) (UniProt Q15746)
DYRK4 (human) = DYRK4 (human) (UniProt Q9NR20)
OXSR1 (human) = OXSR1 (human) (UniProt O95747)
TGFBR2 (human) = TGFBR2 (human) (UniProt P37173)
LYN (human) = LYN (human) (UniProt P07948)
LYN (human), sequence (P07948 whole entry, looked up): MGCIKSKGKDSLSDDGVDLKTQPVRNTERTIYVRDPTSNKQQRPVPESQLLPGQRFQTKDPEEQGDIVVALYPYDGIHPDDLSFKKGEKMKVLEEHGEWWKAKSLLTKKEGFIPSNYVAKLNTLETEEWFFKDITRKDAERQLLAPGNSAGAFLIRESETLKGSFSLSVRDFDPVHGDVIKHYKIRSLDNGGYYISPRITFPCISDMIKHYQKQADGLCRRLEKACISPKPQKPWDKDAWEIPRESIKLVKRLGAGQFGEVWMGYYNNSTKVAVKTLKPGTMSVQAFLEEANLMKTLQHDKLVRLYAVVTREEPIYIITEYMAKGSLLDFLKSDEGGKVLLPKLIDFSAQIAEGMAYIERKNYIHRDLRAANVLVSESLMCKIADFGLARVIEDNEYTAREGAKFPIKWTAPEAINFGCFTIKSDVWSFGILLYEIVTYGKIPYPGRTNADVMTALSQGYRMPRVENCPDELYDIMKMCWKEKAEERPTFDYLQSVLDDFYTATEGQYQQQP

MAPK13 (human) = MAPK13 (human) (UniProt O15264)
CDK4 CCND3 (human) = CDK4 CCND3 (human) (UniProt P30281+P11802)
ADRBK1 (human) = ADRBK1 (human) (UniProt P25098)
FYN (human) = FYN (human) (UniProt P06241)
FYN (human), sequence (P06241 whole entry, looked up): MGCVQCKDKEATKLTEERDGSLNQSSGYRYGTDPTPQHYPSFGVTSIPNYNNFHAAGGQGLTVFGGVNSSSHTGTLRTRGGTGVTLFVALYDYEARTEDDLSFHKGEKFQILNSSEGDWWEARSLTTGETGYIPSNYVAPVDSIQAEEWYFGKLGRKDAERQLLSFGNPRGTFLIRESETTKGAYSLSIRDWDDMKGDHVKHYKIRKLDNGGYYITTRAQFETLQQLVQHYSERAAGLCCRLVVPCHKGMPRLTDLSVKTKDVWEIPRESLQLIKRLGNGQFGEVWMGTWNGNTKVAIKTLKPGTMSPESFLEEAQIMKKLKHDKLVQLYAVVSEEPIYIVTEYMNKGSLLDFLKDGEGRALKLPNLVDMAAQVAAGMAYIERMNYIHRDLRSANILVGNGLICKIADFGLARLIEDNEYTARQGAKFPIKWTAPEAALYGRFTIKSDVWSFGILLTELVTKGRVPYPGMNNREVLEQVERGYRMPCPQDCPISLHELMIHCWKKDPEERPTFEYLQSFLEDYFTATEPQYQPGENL

TBK1 (human) = TBK1 (human) (UniProt Q9UHD2)
TBK1 (human), sequence (Q9UHD2 whole entry, looked up): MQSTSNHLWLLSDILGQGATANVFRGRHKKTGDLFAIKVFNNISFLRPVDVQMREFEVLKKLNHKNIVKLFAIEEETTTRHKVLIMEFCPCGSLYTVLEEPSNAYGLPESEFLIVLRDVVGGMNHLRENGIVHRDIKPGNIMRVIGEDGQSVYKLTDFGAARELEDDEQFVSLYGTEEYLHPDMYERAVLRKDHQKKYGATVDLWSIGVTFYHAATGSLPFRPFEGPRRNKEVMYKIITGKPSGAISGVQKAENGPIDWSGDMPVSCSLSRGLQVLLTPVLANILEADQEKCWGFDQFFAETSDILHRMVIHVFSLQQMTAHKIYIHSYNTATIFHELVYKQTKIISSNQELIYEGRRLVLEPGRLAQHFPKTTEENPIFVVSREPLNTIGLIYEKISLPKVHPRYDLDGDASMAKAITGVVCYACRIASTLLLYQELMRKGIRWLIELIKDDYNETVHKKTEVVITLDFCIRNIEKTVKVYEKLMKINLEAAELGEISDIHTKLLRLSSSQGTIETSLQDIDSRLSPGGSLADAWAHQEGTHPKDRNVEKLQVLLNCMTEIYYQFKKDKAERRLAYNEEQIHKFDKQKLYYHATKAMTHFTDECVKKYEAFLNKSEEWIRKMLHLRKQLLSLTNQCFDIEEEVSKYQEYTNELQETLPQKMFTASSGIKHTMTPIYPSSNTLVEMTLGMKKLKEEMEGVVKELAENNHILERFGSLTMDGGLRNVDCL

FRK (human) = FRK (human) (UniProt P42685)
TTK (human) = TTK (human) (UniProt P33981)
NUAK2 (human) = NUAK2 (human) (UniProt Q9H093)
HCK (human) = HCK (human) (UniProt P08631)
PIM3 (human) = PIM3 (human) (UniProt Q86V86)
MELK (human) = MELK (human) (UniProt Q14680)
PTK2 (human) = PTK2 (human) (UniProt Q05397)
MARK4 (human) = MARK4 (human) (UniProt Q96L34)
SLK (human) = SLK (human) (UniProt Q9H2G2)
SLK (human), sequence (Q9H2G2 whole entry, looked up): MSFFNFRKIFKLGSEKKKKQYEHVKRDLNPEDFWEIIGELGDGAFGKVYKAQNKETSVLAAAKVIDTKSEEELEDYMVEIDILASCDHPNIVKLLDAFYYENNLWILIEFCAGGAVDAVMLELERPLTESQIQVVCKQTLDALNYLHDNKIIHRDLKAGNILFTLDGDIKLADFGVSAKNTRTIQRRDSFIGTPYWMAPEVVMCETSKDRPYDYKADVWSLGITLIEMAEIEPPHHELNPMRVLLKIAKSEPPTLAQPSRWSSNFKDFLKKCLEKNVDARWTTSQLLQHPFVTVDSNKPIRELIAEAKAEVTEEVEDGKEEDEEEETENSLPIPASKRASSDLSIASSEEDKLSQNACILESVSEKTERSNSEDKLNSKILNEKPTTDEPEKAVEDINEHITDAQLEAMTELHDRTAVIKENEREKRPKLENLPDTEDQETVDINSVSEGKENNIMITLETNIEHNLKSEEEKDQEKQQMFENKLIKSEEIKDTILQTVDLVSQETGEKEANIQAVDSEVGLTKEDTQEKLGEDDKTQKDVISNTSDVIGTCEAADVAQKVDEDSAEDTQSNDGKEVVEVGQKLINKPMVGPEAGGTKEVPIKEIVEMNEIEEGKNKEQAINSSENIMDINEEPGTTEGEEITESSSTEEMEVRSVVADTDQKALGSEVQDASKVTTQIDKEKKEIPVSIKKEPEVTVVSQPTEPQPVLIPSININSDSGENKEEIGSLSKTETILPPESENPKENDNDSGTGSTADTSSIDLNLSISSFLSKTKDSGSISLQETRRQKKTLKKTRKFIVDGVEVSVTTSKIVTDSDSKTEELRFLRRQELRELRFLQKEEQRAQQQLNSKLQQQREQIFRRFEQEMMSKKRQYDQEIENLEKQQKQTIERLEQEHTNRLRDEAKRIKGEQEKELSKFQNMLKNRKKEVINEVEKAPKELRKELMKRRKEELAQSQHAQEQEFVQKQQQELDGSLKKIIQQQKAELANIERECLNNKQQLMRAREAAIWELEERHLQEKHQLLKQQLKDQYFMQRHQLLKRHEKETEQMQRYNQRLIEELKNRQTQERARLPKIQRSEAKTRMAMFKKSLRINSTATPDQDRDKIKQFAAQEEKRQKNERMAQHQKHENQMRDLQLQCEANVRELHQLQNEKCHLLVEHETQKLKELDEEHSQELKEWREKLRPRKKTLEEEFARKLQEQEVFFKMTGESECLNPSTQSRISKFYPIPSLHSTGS

STK16 (human) = STK16 (human) (UniProt O75716)
CAMK4 (human) = CAMK4 (human) (UniProt Q16566)
AKT2 (human) = AKT2 (human) (UniProt P31751)
HIPK1 (human) = HIPK1 (human) (UniProt Q86Z02)

With O=c1c(-c2ccc(F)cc2)c(-c2ccncc2)[nH]n1-c1ccc(Cl)cc1 as the molecule, how does the residual activity (EPHA5 (human)) read?
Its residual activity is 106%.

And the residual activity (PKN2 (human))?
Its residual activity is 96.4%.

And the residual activity (CSF1R (human))?
Its residual activity is 102%.

And the residual activity (TEC (human))?
The residual activity was 112%.

What about the residual activity (PDGFRB (human)) of the same molecule?
The residual activity was 101%.

What about the residual activity (HIPK2 (human)) of the same molecule?
The residual activity was 89%.

And the residual activity (NEK11 (human))?
The residual activity was 104%.

What about the residual activity (EPHA3 (human)) of the same molecule?
Its residual activity is 84.4%.

What about the residual activity (IKBKB (human)) of the same molecule?
Its residual activity is 102%.

What about the residual activity (PRKCB1 (human)) of the same molecule?
The residual activity was 84.7%.

What about the residual activity (EPHB1 (human)) of the same molecule?
The residual activity was 90.5%.

What about the residual activity (CAMK1D (human)) of the same molecule?
Its residual activity is 72.2%.

What about the residual activity (MATK (human)) of the same molecule?
Its residual activity is 86%.

What about the residual activity (RPS6KB1 (human)) of the same molecule?
Its residual activity is 89.9%.

And the residual activity (TNK2 (human))?
Its residual activity is 91.2%.

And the residual activity (CAMKK1 (human))?
The residual activity was 98.5%.

And the residual activity (GRK5 (human))?
The residual activity was 90.3%.

What about the residual activity (NEK3 (human)) of the same molecule?
Its residual activity is 100%.

And the residual activity (AURKA (human))?
The residual activity was 94%.

What about the residual activity (MYLK (human)) of the same molecule?
Its residual activity is 101%.

And the residual activity (DYRK4 (human))?
Its residual activity is 81.5%.

And the residual activity (OXSR1 (human))?
Its residual activity is 83.3%.

What about the residual activity (TGFBR2 (human)) of the same molecule?
Its residual activity is 97.7%.

What about the residual activity (LYN (human)) of the same molecule?
The residual activity was 97.5% and 99.7%.

What about the residual activity (MAPK13 (human)) of the same molecule?
The residual activity was 102%.

What about the residual activity (CDK4 CCND3 (human)) of the same molecule?
The residual activity was 101%.

And the residual activity (ADRBK1 (human))?
Its residual activity is 106%.

And the residual activity (FYN (human))?
The residual activity was 94.8%.

What about the residual activity (TBK1 (human)) of the same molecule?
The residual activity was 112%.

And the residual activity (FRK (human))?
The residual activity was 78.5%.

And the residual activity (TTK (human))?
Its residual activity is 110%.

And the residual activity (NUAK2 (human))?
The residual activity was 88.7%.

And the residual activity (HCK (human))?
Its residual activity is 91.1%.

And the residual activity (PIM3 (human))?
Its residual activity is 89.9%.

And the residual activity (MELK (human))?
The residual activity was 86.5%.

And the residual activity (PTK2 (human))?
Its residual activity is 95.1%.

And the residual activity (MARK4 (human))?
The residual activity was 80%.

And the residual activity (SLK (human))?
Its residual activity is 98.2%.

What about the residual activity (STK16 (human)) of the same molecule?
Its residual activity is 100%.

What about the residual activity (CAMK4 (human)) of the same molecule?
The residual activity was 104%.

What about the residual activity (AKT2 (human)) of the same molecule?
The residual activity was 97.8%.

What does the source list for FC(F)(F)c1ccc(/C=C/c2nc(COc3ccc(CCCCn4ccnn4)cc3)co2)cc1?
residual activity (EPHA5 (human)): 99.9%; residual activity (PKN2 (human)): 107%; residual activity (CSF1R (human)): 103%; residual activity (TEC (human)): 86.4%; residual activity (PDGFRB (human)): 98.1%; residual activity (HIPK2 (human)): 90.2%; residual activity (NEK11 (human)): 97.6%; residual activity (EPHA3 (human)): 92.7%; residual activity (IKBKB (human)): 98.6%; residual activity (PRKCB1 (human)): 103%; residual activity (EPHB1 (human)): 99.4%; residual activity (CAMK1D (human)): 109%; residual activity (MATK (human)): 95%; residual activity (RPS6KB1 (human)): 105%; residual activity (CAMKK1 (human)): 96.7%; residual activity (GRK5 (human)): 109%; residual activity (NEK3 (human)): 100%; residual activity (AURKA (human)): 111%; residual activity (MYLK (human)): 94.8%; residual activity (DYRK4 (human)): 101%; residual activity (OXSR1 (human)): 99.7%; residual activity (TGFBR2 (human)): 103%; residual activity (LYN (human)): 104% and 95.8%; residual activity (MAPK13 (human)): 99.1%; residual activity (CDK4 CCND3 (human)): 119%; residual activity (ADRBK1 (human)): 113%; residual activity (FYN (human)): 97%; residual activity (TBK1 (human)): 101%; residual activity (FRK (human)): 99%; residual activity (TTK (human)): 111%; residual activity (NUAK2 (human)): 101%; residual activity (HCK (human)): 93.9%; residual activity (HIPK1 (human)): 101%; residual activity (PIM3 (human)): 107%; residual activity (MELK (human)): 85.4%; residual activity (PTK2 (human)): 101%; residual activity (MARK4 (human)): 97.9%; residual activity (SLK (human)): 92.8%; residual activity (STK16 (human)): 104%; residual activity (CAMK4 (human)): 97.7%; residual activity (AKT2 (human)): 99.9%
